Experimental data published in the CheMixHub ionic liquid set.
Several values for one entry are separate records, joined by “and”; a condition that tells them apart may be missing. Identical values can stand only once.

Test: xn = mol fraction of the nth substance listed

CCCCCC[n+]1ccc(C)cc1.[Br-] + CO/N=C(\C(=O)N[C@@H]1C(=O)N2C(C(=O)[O-])=C(CSc3nc(=O)c(=O)[n-]n3C)CS[C@H]12)c1csc(N)n1.[Na+].[Na+] + O
viscosity [mPa·s], 100 kPa
Details	288.15 K	293.15 K	298.15 K	303.15 K	308.15 K
x2 = 0, x1 = 0.0007045	1.172	1.028	0.913	0.817	0.738
x2 = 0, x1 = 0.001062	1.183	1.039	0.924	0.824	0.746
x2 = 0, x1 = 0.001422	1.195	1.05	0.934	0.834	0.753
x2 = 0.00034, x1 = 0.0007042	1.221	1.065	0.947	0.847	0.764
x2 = 0.0008651, x1 = 0.0007039	1.316	1.152	1.019	0.911	0.818
x2 = 0.0008655, x1 = 0.001061	1.322	1.159	1.029	0.917	0.826
x2 = 0.0008696, x1 = 0.001421	1.338	1.172	1.038	0.923	0.831
x2 = 0.001399, x1 = 0.0007035	1.412	1.233	1.092	0.974	0.875
x2 = 0.001401, x1 = 0.00142	1.432	1.255	1.116	0.991	0.888
x2 = 0.001409, x1 = 0.00106	1.418	1.244	1.1	0.98	0.881
x2 = 0.001955, x1 = 0.001419	1.545	1.353	1.2	1.062	0.951
x2 = 0.001966, x1 = 0.0007031	1.521	1.329	1.178	1.047	0.938
x2 = 0.00197, x1 = 0.00106	1.534	1.34	1.184	1.054	0.946
x2 = 0.00252, x1 = 0.0007027	1.641	1.432	1.264	1.125	1.01
x2 = 0.002559, x1 = 0.001419	1.685	1.47	1.302	1.143	1.03
x2 = 0.003119, x1 = 0.0007023	1.784	1.555	1.369	1.216	1.088
x2 = 0.003144, x1 = 0.001058	1.807	1.572	1.398	1.231	1.098
x2 = 0.003161, x1 = 0.001418	1.832	1.592	1.412	1.242	1.112
x2 = 0.003971, x1 = 0.0007017	2.011	1.751	1.539	1.363	1.216
x2 = 0.003978, x1 = 0.001417	2.065	1.788	1.585	1.387	1.243
x2 = 0.004835, x1 = 0.0007011	2.288	1.987	1.737	1.534	1.365
x2 = 0.004866, x1 = 0.001415	2.36	2.033	1.798	1.567	1.394
x2 = 0.00487, x1 = 0.001057	2.329	2.011	1.772	1.556	1.379
x2 = 0.005535, x1 = 0.0007006	2.55	2.197	1.919	1.69	1.499
x2 = 0.005568, x1 = 0.001056	2.58	2.228	1.956	1.716	1.513
x2 = 0.00558, x1 = 0.001414	2.61	2.251	1.984	1.726	1.534

CCCCCCCC[N+](C)(CCCCCCCC)CCCCCCCC.[Cl-] + COC(=O)OC
101 kPa
Details	electrical conductivity	viscosity [mPa·s]
298.15 K, x1 = 0.002	0.00012 S/m	–
298.15 K, x1 = 0.006	0.000267 S/m	–
298.15 K, x1 = 0.011	0.000601 S/m	–
298.15 K, x1 = 0.015	0.000944 S/m	–
298.15 K, x2 = 0	0.0026 S/m	2391
298.15 K, x2 = 0.67	0.015 S/m	58.07
298.15 K, x2 = 0.88	0.026 S/m	5.19
298.15 K, x2 = 0.98	0.00126 S/m	–
303.15 K, x1 = 0.002	0.000143 S/m	–
303.15 K, x1 = 0.006	0.000346 S/m	–
303.15 K, x1 = 0.011	0.00075 S/m	–
303.15 K, x1 = 0.015	0.00122 S/m	–
303.15 K, x2 = 0.55	0.0126 S/m	123.5
303.15 K, x2 = 0.98	0.00161 S/m	–
308.15 K, x1 = 0.002	0.000199 S/m	–
308.15 K, x1 = 0.006	0.00043 S/m	–
308.15 K, x2 = 0.76	0.0317 S/m	15.98
308.15 K, x2 = 0.95	0.0116 S/m	1.21
308.15 K, x2 = 0.98	0.0017 S/m and 0.00175 S/m	0.71
313.15 K, x1 = 0.006	0.0005 S/m	–
313.15 K, x1 = 0.011	0.00105 S/m	–
313.15 K, x2 = 0.55	0.0201 S/m	78.5
313.15 K, x2 = 0.92	0.0292 S/m	1.9
313.15 K, x2 = 0.98	0.00188 S/m and 0.0019 S/m	0.67
318.15 K, x1 = 0.002	0.000399 S/m	–
318.15 K, x1 = 0.006	0.00062 S/m	–
318.15 K, x1 = 0.011	0.00115 S/m	–
318.15 K, x2 = 0.98	0.00197 S/m	–

CCCCCCCCn1cc[n+](C)c1.F[B-](F)(F)F + COC(C)=O
298.15 K, 101 kPa
Details	viscosity [mPa·s]
x2 = 0.199	100
x2 = 0.5512	13.82
x2 = 0.801	2.29
x2 = 0.9515	0.63

CCCCCCCCCCCCCC[P+](CCCCCC)(CCCCCC)CCCCCC.O=S(=O)([N-]S(=O)(=O)C(F)(F)F)C(F)(F)F + COCCOCCOCCOCCOC
viscosity [mPa·s], 100 kPa
Details	278.15 K	283.15 K	288.15 K	293.15 K	298.15 K	303.15 K	313.15 K	323.15 K
x2 = 0.191	589	414	299	221	168	130	83	60
x2 = 0.366	281	207	157	121	96	77	52	–
x2 = 0.559	111	85	67	54	–	–	–	–
x2 = 0.664	64	51	–	–	–	–	–	–
